Assay [1] has as its target T1, Ephrin type-B receptor 4 (Homo sapiens) (UniProt P54760).
T1 sequence (whole entry): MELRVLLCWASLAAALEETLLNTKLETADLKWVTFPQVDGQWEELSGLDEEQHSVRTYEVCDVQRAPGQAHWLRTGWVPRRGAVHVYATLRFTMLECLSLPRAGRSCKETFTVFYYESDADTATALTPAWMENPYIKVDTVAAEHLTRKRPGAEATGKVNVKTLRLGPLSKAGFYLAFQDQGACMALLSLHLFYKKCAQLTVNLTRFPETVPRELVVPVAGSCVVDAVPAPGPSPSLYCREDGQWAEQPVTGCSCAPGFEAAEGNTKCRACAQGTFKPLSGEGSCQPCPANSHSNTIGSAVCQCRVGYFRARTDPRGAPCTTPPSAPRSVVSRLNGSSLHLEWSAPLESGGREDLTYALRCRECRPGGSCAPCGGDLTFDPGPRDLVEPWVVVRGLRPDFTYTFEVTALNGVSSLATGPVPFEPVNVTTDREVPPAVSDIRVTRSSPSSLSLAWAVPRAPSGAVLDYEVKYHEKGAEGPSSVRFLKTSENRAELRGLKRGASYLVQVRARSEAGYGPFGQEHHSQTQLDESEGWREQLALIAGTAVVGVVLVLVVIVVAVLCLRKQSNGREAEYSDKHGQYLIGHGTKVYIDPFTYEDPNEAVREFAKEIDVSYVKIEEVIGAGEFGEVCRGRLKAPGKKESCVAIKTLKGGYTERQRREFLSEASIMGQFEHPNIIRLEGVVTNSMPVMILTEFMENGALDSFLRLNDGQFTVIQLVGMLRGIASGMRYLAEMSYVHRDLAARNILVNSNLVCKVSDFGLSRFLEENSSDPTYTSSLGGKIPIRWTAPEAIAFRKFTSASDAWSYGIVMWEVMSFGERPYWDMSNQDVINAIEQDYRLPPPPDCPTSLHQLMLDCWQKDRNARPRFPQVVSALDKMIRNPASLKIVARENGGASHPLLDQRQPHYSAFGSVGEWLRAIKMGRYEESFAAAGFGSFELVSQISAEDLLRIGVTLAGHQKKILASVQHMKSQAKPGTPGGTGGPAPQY
Description: Selectivity interaction (KinomeScan (DiscoverX)) EUB0000092b EPHB4. To be noted: at 10 µM.

Assay [2] has as its target T2, Dual specificity mitogen-activated protein kinase kinase 7 (Homo sapiens) (UniProt O14733).
T2 sequence (whole entry): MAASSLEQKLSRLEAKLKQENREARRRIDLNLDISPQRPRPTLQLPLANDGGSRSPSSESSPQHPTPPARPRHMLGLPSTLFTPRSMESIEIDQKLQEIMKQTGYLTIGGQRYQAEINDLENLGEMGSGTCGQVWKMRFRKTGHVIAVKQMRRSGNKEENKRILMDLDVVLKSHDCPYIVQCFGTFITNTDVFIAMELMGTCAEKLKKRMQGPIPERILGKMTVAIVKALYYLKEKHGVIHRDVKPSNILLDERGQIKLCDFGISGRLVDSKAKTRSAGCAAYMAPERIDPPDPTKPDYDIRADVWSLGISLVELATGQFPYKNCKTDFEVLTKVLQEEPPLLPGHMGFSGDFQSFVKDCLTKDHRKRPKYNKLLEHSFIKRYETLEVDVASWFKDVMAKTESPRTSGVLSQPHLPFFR
The assay is described as follows: Selectivity interaction (KinomeScan (DiscoverX)) EUB0000045b MAP2K7.

Assay [3] concerns the target T3, Protein kinase C iota type (Homo sapiens) (UniProt P41743).
T3 sequence (whole entry): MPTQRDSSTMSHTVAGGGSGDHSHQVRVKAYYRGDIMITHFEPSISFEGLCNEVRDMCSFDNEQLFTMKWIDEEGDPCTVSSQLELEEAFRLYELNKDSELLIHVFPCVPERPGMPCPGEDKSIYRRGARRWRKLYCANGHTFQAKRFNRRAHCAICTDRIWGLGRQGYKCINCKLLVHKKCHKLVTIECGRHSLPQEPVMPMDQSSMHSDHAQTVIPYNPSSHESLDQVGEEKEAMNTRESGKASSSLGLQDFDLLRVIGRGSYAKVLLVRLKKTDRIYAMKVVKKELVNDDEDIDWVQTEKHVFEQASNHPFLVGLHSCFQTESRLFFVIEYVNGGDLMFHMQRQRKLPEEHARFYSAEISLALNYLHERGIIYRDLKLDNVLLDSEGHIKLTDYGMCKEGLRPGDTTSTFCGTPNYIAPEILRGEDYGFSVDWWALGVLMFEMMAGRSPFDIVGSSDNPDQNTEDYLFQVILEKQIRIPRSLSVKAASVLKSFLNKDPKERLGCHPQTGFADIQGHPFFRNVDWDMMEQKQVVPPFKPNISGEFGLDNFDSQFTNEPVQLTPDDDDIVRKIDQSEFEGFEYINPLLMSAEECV
Description: Selectivity interaction (KinomeScan (DiscoverX)) EUB0000045b PRKCI.

For assay [4], the target named is Ribosomal protein S6 kinase alpha-5 (Homo sapiens) (UniProt O75582). Description: Selectivity interaction (KinomeScan (DiscoverX)) EUB0000666a RPS6KA5. The conditions noted are these: at 10 µM.
Assay [5] deals with T4, Rhodopsin kinase GRK7 (Homo sapiens) (UniProt Q8WTQ7).
T4 sequence (whole entry): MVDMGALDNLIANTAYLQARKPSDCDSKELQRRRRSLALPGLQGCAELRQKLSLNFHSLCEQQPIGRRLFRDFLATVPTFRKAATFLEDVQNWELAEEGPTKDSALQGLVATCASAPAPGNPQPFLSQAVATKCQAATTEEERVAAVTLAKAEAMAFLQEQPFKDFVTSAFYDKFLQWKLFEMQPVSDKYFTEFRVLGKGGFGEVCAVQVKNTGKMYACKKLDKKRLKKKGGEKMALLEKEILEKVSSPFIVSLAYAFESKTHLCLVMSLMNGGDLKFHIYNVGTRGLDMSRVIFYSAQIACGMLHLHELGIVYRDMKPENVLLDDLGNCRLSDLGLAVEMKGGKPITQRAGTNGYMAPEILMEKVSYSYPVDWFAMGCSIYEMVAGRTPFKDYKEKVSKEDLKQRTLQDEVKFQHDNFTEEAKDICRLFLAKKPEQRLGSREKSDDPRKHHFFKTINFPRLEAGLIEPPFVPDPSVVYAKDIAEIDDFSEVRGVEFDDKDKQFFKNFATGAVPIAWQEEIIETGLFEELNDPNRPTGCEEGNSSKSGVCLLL
Description: Selectivity interaction (SelectScreen profiling (Invitrogen)) EUB0000607a GRK7. The conditions noted are these: at 2 µM.

Assay [6] deals with Serine/threonine-protein kinase 26 (Homo sapiens, UniProt Q9P289). Description: Selectivity interaction (KinomeScan (DiscoverX)) EUB0000618a STK26. To be noted: at 10 µM.
The target in assay [7] is Dual specificity mitogen-activated protein kinase kinase 1 (Homo sapiens, UniProt Q02750). Description: Selectivity interaction (KinomeScan (DiscoverX)) EUB0000618a MAP2K1. The conditions noted are these: at 10 µM.

Here are results for 5 compounds from ChEMBL document CHEMBL5465560, “Selectivity Literature for EUbOPEN Chemogenomic Library” (2024).

Ribosomal protein S6 kinase alpha-5 (Homo sapiens), sequence (O75582 whole entry, looked up): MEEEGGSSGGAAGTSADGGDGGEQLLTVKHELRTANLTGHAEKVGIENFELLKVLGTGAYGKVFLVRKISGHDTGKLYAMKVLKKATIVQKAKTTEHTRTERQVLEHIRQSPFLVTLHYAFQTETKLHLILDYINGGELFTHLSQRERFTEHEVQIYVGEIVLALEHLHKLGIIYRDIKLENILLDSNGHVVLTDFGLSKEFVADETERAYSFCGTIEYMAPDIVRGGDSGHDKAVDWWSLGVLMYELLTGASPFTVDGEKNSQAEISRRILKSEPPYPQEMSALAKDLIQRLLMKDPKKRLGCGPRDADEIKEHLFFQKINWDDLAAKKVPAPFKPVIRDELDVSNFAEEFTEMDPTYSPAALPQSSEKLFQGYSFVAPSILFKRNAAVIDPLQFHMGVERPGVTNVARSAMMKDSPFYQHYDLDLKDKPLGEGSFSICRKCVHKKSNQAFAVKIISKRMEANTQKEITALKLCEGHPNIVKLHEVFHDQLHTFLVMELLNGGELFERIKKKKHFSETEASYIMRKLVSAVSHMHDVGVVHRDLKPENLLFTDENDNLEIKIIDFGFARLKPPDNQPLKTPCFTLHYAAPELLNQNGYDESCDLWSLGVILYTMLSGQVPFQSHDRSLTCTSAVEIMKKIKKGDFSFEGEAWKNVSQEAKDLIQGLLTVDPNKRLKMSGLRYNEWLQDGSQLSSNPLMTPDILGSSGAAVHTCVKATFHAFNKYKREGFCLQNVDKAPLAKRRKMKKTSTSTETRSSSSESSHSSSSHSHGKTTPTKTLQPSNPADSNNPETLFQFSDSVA
Serine/threonine-protein kinase 26, sequence (Q9P289 2-416 limits assumed): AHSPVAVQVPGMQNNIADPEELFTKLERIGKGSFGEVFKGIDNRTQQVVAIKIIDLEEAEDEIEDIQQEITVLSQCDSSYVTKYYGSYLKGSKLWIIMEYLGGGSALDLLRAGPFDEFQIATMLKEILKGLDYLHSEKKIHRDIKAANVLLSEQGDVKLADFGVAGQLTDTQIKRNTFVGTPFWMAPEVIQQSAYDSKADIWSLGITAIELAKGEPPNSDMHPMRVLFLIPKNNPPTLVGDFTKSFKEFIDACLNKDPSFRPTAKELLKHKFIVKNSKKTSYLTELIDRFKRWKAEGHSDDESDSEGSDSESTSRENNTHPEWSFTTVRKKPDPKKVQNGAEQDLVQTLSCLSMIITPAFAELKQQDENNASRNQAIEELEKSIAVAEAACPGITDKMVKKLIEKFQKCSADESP
Dual specificity mitogen-activated protein kinase kinase 1, sequence (Q02750 whole entry): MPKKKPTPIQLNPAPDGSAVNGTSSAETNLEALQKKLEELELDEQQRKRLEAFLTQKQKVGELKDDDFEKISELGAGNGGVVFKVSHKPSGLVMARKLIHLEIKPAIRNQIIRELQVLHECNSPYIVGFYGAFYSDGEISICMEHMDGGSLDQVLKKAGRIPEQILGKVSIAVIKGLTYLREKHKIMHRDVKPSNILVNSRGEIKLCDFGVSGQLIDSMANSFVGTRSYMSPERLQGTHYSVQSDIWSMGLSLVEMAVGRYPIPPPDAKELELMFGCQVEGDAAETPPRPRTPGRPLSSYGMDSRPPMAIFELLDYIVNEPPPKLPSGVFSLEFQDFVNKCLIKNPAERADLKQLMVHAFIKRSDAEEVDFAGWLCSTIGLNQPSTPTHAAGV

Consider `CCC(=O)N1CCN(c2ccc(-n3c(=O)ccc4cnc5ccc(-c6cnc7ccccc7c6)cc5c43)cc2C(F)(F)F)CC1`, for which, in assay [1], the % of control turned out to be 85%.

In the case of `C=CC(=O)Nc1cc(-n2c(=O)ccc3cnc4ccc(-c5ccc(NS(C)(=O)=O)cc5)cc4c32)ccc1C`, the % of control came out at 49% in assay [2] (at 1 µM), 6.1% in assay [2] (at 10 µM), 84% in assay [3] (at 1 µM) and 64% in assay [3] (at 10 µM).

In the case of `O=C(NOC[C@H](O)CO)c1ccc(F)c(F)c1Nc1ccc(I)cc1F`, the % of control in assay [4] amounted to 100%.

Turning to `CNC(=O)Nc1ccc(-c2nc(N3CC4CCC(C3)O4)c3cnn(C4CCC5(CC4)OCCO5)c3n2)cc1`, in assay [5], the % of inhibition was determined as 7%.

Regarding `O[C@H]1CC[C@H](Nc2ncc3nc(Nc4c(F)cc(F)cc4F)n([C@H]4CCOC4)c3n2)CC1`, the % of control in assay [6] amounted to 82%; in assay [7], 100%.
